Experimental data: publication PMC3038857, “Using Nuclear Receptor Activity to Stratify Hepatocarcinogens” (PLoS ONE, 2011)
Where two headings read alike, the source gives them in different places.

Assays:
[1] = target: T1, ESR1 (estrogen receptor 1) (Homo sapiens, UniProt P03372); assay: ATG_ERE_CIS: Factorial reporter gene assay (HepG2); format: cell-based; conditions: HepG2
T1 construct: expressed in transfected cells; host or cells: HepG2
Description: A multiple reporter transcription unit (MRTU) library consisting of 48 transcription factor binding sites was transfected into the HepG2 human liver hepatoma cell line. In addition to the cis-acting reporter genes (CIS), a modification of the approach was used to generate a trans-system (TRANS) with a mammalian one-hybrid assay consisting of an additional 25 MRTU library reporting the activity of nuclear receptor super-family members. […] These assays were performed by Attagene Inc. (Morrisville NC) under contract to EPA.
In addition to the cis-acting reporter genes (CIS), a modification of the approach was used to generate a trans-system (TRANS) with a mammalian one-hybrid assay consisting of an additional 25 MRTU library reporting the activity of nuclear receptor super-family members. […] Chemicals were then tested in the CIS and TRANS assays at seven concentrations starting at the MTC and followed by three-fold serial dilutions. These assays were performed by Attagene Inc. (Morrisville NC) under contract to EPA. Detailed description of the methods, data and analysis methods for this dataset will be presented in a separate publication.

CYP2B6 = assay: CLZD_CYP2B6: Change in expression of CYP2B6 (primary human hepatocytes); format: cell-based; conditions: 24 hr
Summary of the method: (§1)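 Cultured primary human hepatocytes treated with chemicals for 6, 24 or 48 hr across five concentrations spanning 0.004-40 µM, then transcript level measured by quantitative nuclease protection in a multiplexed format.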

CYP3A4 = assay: CLZD_CYP3A4: Change in expression of CYP3A4 (primary human hepatocytes); format: cell-based; conditions: 24 hr
Summary of the method: as §1

Mouse Liver = conditions: mouse, chronic study, ref ToxRefDB; cited from earlier work
Rat Liver [2] = conditions: ref ToxRefDB, cited from earlier work
Rat Liver [3] = conditions: ref ToxRefDB, cited from earlier work; remark: listed apart in the source
Rat Liver [4] = conditions: ref ToxRefDB, cited from earlier work; remark: listed apart in the source
PXR (NR1I2) = target: T2, PXR (NR1I2) (Homo sapiens, UniProt O75469); assay: ATG_PXRE_CIS: Factorial reporter gene assay (HepG2); format: cell-based; parameters: endogenous in cells; host or cells: HepG2; conditions: HepG2
T2 sequence (O75469 1-434): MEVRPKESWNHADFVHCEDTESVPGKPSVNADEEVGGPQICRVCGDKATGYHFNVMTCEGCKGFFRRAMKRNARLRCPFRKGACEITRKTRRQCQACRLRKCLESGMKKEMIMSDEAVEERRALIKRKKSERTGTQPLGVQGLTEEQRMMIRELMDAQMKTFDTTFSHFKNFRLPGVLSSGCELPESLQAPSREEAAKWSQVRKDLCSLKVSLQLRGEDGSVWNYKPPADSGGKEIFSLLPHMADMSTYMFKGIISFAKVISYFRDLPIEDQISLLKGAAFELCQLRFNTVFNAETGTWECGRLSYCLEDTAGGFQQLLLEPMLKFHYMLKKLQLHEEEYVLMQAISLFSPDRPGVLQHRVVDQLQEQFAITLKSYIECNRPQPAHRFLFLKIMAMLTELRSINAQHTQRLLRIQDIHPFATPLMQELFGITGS
Summary of the method: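 Compounds at seven concentrations (top at MTC, threefold serial) were applied to transfected HepG2 hepatoma cells, with PXRE scored by cis-element reporters and ERRg, FXR and PPARg scored by trans one-hybrid nuclear receptor reporters.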

HMGCS2 = assay: CLZD_HMGCS2: Change in expression of HMGCS2 (primary human hepatocytes); format: cell-based; conditions: 24 hr
Description: This is a collection of multiplexed gene expression assays focused on Phase I and II xenobiotic metabolizing enzymes and transporters. Human primary cell cultures were treated with chemicals at 5 concentrations (0.004-40 [drawing 42] M) for 6, 24 and 48 hr. Concentration- and time-response profiles of chemicals were measured by the expression of key nuclear receptor target genes, activities of CYP1A enzymes (EROD), and cell morphology. Fourteen gene targets were monitored by quantitative nuclease protection assay including: six representative cytochrome P-450 genes, four hepatic transporters, three Phase II conjugating enzymes, and one endogenous metabolism gene involved in cholesterol synthesis. The target genes associated with nuclear receptor pathways are as follows: [drawing 43] and [drawing 44] with [drawing 45]; [drawing 46] , [drawing 47] , [drawing 48] , [drawing 49] , [drawing 50] and [drawing 51] with [drawing 52]; [drawing 53] , [drawing 54] , [drawing 55] and [drawing 56] with [drawing 57]; [drawing 58] with [drawing 59]; and [drawing 60] with [drawing 61] . Assays were run in primary human hepatocyte cultures by CellzDirect Invitrogen Inc. (Durham, NC), in collaboration with EPA.
Multiplexed Gene Expression in Human Primary Hepatocytes: This is a collection of multiplexed gene expression assays focused on Phase I and II metabolic enzymes and transporters. […] Fourteen gene targets were monitored by quantitative nuclease protection assay: six representative cytochrome P450 genes, four hepatic transporters, three Phase II conjugating enzymes, and one endogenous metabolism gene involved in cholesterol synthesis. Cells were exposed at 5 concentrations (0.004-40 µM) for 6, 24 or 48 hr. Gene targets are sentinels for five nuclear receptor signaling pathways: AhR, CAR, PXR, FXR, and PPARα. All gene are associated with nuclear receptor pathways: CYP1A1 and CYP1A2 with AHR; ABCB1, ABCG2, CYP2B6, CYP2C9, CYP2C19 and UGT1A1 with CAR; CYP3A4, GSTA2, SLCO1B1 and SULT2A1 with PXR; HMGCS2 with PPARA; and ABCB11 with FXR. […] Detailed description of the methods, data and analysis methods for this dataset will be presented in a separate publication.

T1 sequence (P03372 whole entry): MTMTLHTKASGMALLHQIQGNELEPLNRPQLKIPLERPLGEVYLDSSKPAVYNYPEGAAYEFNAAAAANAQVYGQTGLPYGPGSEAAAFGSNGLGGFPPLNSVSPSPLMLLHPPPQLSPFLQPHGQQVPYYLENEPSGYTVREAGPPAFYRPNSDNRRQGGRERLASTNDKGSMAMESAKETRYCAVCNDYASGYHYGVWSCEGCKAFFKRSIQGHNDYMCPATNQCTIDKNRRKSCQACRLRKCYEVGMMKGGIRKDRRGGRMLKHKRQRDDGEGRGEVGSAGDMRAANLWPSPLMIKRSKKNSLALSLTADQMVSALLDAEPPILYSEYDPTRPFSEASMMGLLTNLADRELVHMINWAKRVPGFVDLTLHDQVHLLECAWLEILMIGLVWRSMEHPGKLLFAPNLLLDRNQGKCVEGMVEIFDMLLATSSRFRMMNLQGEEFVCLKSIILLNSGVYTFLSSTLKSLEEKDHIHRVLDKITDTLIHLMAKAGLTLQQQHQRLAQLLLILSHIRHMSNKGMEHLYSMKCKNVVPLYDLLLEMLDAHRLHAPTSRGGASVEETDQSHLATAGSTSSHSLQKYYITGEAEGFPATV

Row | SMILES | ATG_ERE_CIS [1] | CLZD_CYP2B6_24 (CYP2B6) | CLZD_CYP3A4_24 (CYP3A4) | CHR_Mouse_Liver_1_AnyLesion (Mouse Liver) | CHR_Rat_Liver_1_AnyLesion (Rat Liver [2]; rat, chronic study) | CHR_Rat_Liver_2_PreneoplasticLesion (Rat Liver [3]; rat, chronic study) | CHR_Rat_Liver_3_NeoplasticLesion (Rat Liver [4]; rat, chronic study) | ATG_PXRE_CIS (PXR (NR1I2)) | CLZD_HMGCS2_24 (HMGCS2) | CHR_Rat_Liver_1_AnyLesion (Rat Liver [2]; chronic rat study, liver) | CHR_Rat_Liver_2_PreneoplasticLesion (Rat Liver [3]; chronic rat study, liver) | CHR_Rat_Liver_3_NeoplasticLesion (Rat Liver [4]; chronic rat study, liver)
1 | Cc1cc(C)nc(NC(=O)NS(=O)(=O)c2ccccc2C(=O)OC2COC2)n1 [r232] | 4.319 | 4.534 | 4.535 | 6 | 6 | 6 | 0 | 4.337 |  |  |  | 
2 | C[N+]1(C)CCCCC1.[Cl-] [row 193] |  |  |  |  |  |  |  |  | 5.889 | 0 | 0 | 0
